Assay results reported in article PMC5402990 (PLoS Neglected Tropical Diseases, 2017).

Biological target: PIKfyve (Homo sapiens, UniProt Q9Y2I7)
Type: cell-based

Sequence of PIKfyve (Q9Y2I7 whole entry, species assumed): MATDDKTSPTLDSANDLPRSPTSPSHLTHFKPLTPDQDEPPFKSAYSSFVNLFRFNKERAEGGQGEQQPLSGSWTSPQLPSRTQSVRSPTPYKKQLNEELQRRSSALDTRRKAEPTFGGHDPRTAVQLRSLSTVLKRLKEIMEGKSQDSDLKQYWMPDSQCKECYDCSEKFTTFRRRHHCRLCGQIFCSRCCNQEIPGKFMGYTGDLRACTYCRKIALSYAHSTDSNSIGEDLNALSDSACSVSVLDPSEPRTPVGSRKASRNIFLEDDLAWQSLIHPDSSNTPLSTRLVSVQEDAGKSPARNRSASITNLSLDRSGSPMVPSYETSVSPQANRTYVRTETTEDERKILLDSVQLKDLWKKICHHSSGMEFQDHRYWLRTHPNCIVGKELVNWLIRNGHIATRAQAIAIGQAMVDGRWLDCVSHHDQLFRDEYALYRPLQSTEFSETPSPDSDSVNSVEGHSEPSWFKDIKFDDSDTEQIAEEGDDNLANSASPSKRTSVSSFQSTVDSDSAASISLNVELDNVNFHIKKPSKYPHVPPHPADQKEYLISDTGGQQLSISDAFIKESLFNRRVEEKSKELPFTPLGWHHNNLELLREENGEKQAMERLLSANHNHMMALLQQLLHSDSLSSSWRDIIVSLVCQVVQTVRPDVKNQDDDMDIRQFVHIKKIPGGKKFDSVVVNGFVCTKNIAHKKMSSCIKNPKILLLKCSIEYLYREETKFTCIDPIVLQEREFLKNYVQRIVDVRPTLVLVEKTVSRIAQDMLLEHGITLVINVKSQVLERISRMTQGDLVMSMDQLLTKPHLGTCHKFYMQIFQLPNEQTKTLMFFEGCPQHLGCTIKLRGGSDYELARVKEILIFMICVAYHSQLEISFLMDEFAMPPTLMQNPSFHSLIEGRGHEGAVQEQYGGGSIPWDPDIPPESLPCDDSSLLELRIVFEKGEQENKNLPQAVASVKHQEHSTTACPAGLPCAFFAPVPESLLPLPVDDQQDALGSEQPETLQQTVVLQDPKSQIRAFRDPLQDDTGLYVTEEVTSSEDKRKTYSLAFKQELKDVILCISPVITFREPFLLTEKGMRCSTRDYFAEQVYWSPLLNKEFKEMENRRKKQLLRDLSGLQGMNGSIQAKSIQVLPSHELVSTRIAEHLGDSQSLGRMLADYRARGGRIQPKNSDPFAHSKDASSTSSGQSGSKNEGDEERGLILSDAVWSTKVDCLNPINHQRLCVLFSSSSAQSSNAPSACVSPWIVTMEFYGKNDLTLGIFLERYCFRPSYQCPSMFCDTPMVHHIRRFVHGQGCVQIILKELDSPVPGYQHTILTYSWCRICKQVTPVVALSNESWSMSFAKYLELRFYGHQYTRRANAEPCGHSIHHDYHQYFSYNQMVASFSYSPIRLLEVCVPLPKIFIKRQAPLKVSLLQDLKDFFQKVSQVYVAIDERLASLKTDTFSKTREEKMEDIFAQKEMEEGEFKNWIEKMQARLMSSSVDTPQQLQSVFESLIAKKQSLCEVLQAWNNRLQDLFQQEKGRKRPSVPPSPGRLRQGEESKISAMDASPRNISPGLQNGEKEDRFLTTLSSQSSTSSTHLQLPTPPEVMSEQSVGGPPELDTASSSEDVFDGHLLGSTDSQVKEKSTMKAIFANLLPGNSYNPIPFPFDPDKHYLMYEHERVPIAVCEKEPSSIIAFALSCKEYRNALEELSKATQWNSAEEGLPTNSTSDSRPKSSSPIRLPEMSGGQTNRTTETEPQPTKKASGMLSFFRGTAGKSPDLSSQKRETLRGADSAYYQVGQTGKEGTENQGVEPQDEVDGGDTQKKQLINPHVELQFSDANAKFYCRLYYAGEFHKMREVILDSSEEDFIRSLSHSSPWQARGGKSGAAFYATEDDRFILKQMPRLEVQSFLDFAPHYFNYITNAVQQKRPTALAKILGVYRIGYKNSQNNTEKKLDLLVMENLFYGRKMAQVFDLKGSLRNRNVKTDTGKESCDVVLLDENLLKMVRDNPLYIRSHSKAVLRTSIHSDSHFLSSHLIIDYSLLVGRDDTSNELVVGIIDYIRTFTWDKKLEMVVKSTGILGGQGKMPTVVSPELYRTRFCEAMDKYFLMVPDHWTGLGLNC

Compound: Cc1cccc(/C=N/Nc2cc(N3CCOCC3)nc(OCCc3ccccn3)n2)c1 [Apilimod, apilimod]
- dose needed to inhibit EBOV GP-mediated infection in GFP-PIKfyve vs. GFP expressing cells: higher doses of apilimod were needed to achieve similar levels of inhibition
